Assay results from the NIST ThermoML archive (doi:10.1016/j.jct.2006.05.009).

How the values were obtained:
[1] = Molar enthalpy of transition or fusion
[2] = molar heat capacity at constant pressure; settings: 101.33 kPa, Crystal 2

Cn1c(=O)c2c(ncn2C)n(C)c1=O [caffeine]
Settings | Molar enthalpy of transition or fusion [kcal/mol] | molar heat capacity at constant pressure [J/K/mol]
[1], Crystal 1 | 4.75 | –
[1], Crystal 2 | 0.82 | –
[2], 80.83 K | – | 98.31
[2], 84.15 K | – | 101.95
[2], 87.22 K | – | 104.62
[2], 90.15 K | – | 106.27
[2], 93.05 K | – | 109.02
[2], 95.91 K | – | 112.23
[2], 98.73 K | – | 116.53
[2], 101.49 K | – | 119.06
[2], 104.21 K | – | 121.47
[2], 106.88 K | – | 123.99
[2], 109.98 K | – | 125.77
[2], 113.03 K | – | 127.49
[2], 115.96 K | – | 130.48
[2], 118.81 K | – | 132.67
[2], 121.58 K | – | 134.84
[2], 124.27 K | – | 136.76
[2], 126.89 K | – | 139.36
[2], 129.43 K | – | 140.97
[2], 131.92 K | – | 142.97
[2], 134.34 K | – | 144.92
[2], 136.69 K | – | 145.99
[2], 138.99 K | – | 148.53
[2], 141.24 K | – | 149.98
[2], 143.42 K | – | 150.47
[2], 145.52 K | – | 151.98
[2], 148 K | – | 155.83
[2], 150.06 K | – | 156.99
[2], 152.08 K | – | 157.88
[2], 154.08 K | – | 159.38
[2], 156.06 K | – | 160.61
[2], 158.01 K | – | 161.82
[2], 159.95 K | – | 162.55
[2], 161.87 K | – | 163.14
[2], 163.77 K | – | 164.64
[2], 165.79 K | – | 164.91
[2], 168.47 K | – | 166.4
[2], 171.41 K | – | 166.83
[2], 174.32 K | – | 167.9
[2], 177.21 K | – | 169.06
[2], 180.03 K | – | 169.58
[2], 182.8 K | – | 171.5
[2], 185.57 K | – | 172.7
[2], 188.3 K | – | 174.64
[2], 191 K | – | 176.3
[2], 193.71 K | – | 178.38
[2], 196.39 K | – | 179.3
[2], 199.05 K | – | 180.41
[2], 201.7 K | – | 181.59
[2], 204.31 K | – | 182.99
[2], 206.91 K | – | 184.79
[2], 209.47 K | – | 186.12
[2], 212.08 K | – | 187.01
[2], 214.76 K | – | 189.97
[2], 217.47 K | – | 191.2
[2], 220.2 K | – | 192.68
[2], 222.95 K | – | 194.21
[2], 226.26 K | – | 195.06
[2], 230.04 K | – | 197.34
[2], 233.76 K | – | 198.99
[2], 237.43 K | – | 200.1
[2], 241.09 K | – | 202.07
[2], 244.7 K | – | 202.6
[2], 248.28 K | – | 203.14
[2], 251.82 K | – | 203.17
[2], 255.32 K | – | 204.06
[2], 258.78 K | – | 205.75
[2], 259.39 K | – | 207.72
[2], 262.25 K | – | 207.77
[2], 265.07 K | – | 209.13
[2], 267.83 K | – | 210.94
[2], 270.58 K | – | 212.28
[2], 273.31 K | – | 213.56
[2], 276.04 K | – | 215.35
[2], 278.76 K | – | 217.05
[2], 281.49 K | – | 217.99
[2], 284.22 K | – | 220.07
[2], 286.92 K | – | 223.22
[2], 289.58 K | – | 223.75
[2], 292.23 K | – | 225.69
[2], 294.87 K | – | 226.47
[2], 297.52 K | – | 227.12
[2], 300.14 K | – | 227.17
[2], 302.75 K | – | 228.98
[2], 305.33 K | – | 230.29
[2], 307.91 K | – | 230.71
[2], 310.51 K | – | 233.27
[2], 313.09 K | – | 234.23
[2], 315.65 K | – | 234.61
[2], 318.19 K | – | 235.23
[2], 320.86 K | – | 237.37
[2], 323.42 K | – | 238.29
[2], 325.99 K | – | 238.92
[2], 328.63 K | – | 240.12
[2], 331.31 K | – | 243.07
[2], 333.96 K | – | 245.08
[2], 336.61 K | – | 246.31
[2], 339.22 K | – | 248.21
[2], 341.76 K | – | 249.29
[2], 344.27 K | – | 251.55
[2], 346.83 K | – | 253.2
[2], 349.18 K | – | 254.04
[2], 351.69 K | – | 255.21
[2], 354.36 K | – | 256.94
[2], 357.01 K | – | 258.67
[2], 359.66 K | – | 260.51
[2], 362.27 K | – | 261.86
[2], 364.86 K | – | 262.9
[2], 367.44 K | – | 264.99
[2], 369.95 K | – | 266.24
[2], 372.45 K | – | 266.46
[2], 374.91 K | – | 267.26
[2], 377.39 K | – | 269.44
[2], 379.84 K | – | 270.33
[2], 382.28 K | – | 271.84
[2], 384.69 K | – | 272.71
[2], 387.08 K | – | 274.88

Settings | Triple point temperature [K]
Crystal 1 | 509
Crystal 2 | 413.39
